Measurements reported in ChEMBL document CHEMBL1275576, “In vitro activity of tomopenem (CS-023/RO4908463) against anaerobic bacteria” (Antimicrob Agents Chemother, 2009).

Columns and labels:
Assay type in all cases: functional
Bacteroides fragilis [1] = test: Antimicrobial activity against carbapenemase-producing Bacteroides fragilis GAI 30079 by agar dilution method in presence of 5% laked sheep blood
Bacteroides fragilis [2] = test: Antimicrobial activity against carbapenemase-producing Bacteroides fragilis GAI 30144 by agar dilution method in presence of 5% laked sheep blood
Phocaeicola vulgatus = test: Antimicrobial activity against Bacteroides vulgatus GAI 0673 by agar dilution method in presence of 5% laked sheep blood
[3] = tested on: Bacteroides thetaiotaomicron; test: Antimicrobial activity against Bacteroides thetaiotaomicron ATCC 29741 by agar dilution method in presence of 5% laked sheep blood
Bacteroides uniformis = test: Antimicrobial activity against Bacteroides uniformis ATCC 8492 by agar dilution method in presence of 5% laked sheep blood
[4] = tested on: Bacteroides eggerthii DSM 20697; test: Antimicrobial activity against Bacteroides eggerthii ATCC 27754 by agar dilution method in presence of 5% laked sheep blood
Campylobacter gracilis = test: Antimicrobial activity against Campylobacter gracilis JCM 8538 by agar dilution method in presence of 5% laked sheep blood
[5] = tested on: Sutterella wadsworthensis; test: Antimicrobial activity against Sutterella wadsworthensis ATCC 51579 by agar dilution method in presence of 5% laked sheep blood
Prevotella bivia = test: Antimicrobial activity against Prevotella bivia ATCC 29303 by agar dilution method in presence of 5% laked sheep blood; details: DSM 20514
Prevotella buccae = test: Antimicrobial activity against Prevotella buccae ATCC 33574 by agar dilution method in presence of 5% laked sheep blood; details: Segatella buccae
Prevotella corporis = test: Antimicrobial activity against Prevotella corporis GAI 91000 by agar dilution method in presence of 5% laked sheep blood
Prevotella intermedia = test: Antimicrobial activity against Prevotella intermedia ATCC 25611 by agar dilution method in presence of 5% laked sheep blood
Prevotella denticola = test: Antimicrobial activity against Prevotella denticola GAI 5490 by agar dilution method in presence of 5% laked sheep blood
Prevotella oris = test: Antimicrobial activity against Prevotella oris ATCC 33573 by agar dilution method in presence of 5% laked sheep blood; details: Segatella oris
[6] = tested on: Porphyromonas asaccharolytica; test: Antimicrobial activity against Porphyromonas asaccharolyticus ATCC 25260 by agar dilution method in presence of 5% laked sheep blood; details: DSM 20707
[7] = tested on: Fusobacterium necrophorum; test: Antimicrobial activity against Fusobacterium necrophorum ATCC 25286 by agar dilution method in presence of 5% laked sheep blood
Bilophila wadsworthia = test: Antimicrobial activity against Bilophila wadsworthia WAL 7959 by agar dilution method in presence of 5% laked sheep blood
[8] = tested on: Desulfovibrio desulfuricans; test: Antimicrobial activity against Desulfovibrio desulfuricans ATCC 29577 by agar dilution method in presence of 5% laked sheep blood
Capnocytophaga ochracea = test: Antimicrobial activity against Capnocytophaga ochracea GAI 5586 by agar dilution method in presence of 5% laked sheep blood
Veillonella parvula = test: Antimicrobial activity against Veillonella parvula ATCC 10790 by agar dilution method in presence of 5% laked sheep blood
Anaerococcus prevotii = test: Antimicrobial activity against Anaerococcus prevotii ATCC 9321 by agar dilution method in presence of 5% laked sheep blood
Atopobium parvulum = test: Antimicrobial activity against Atopobium parvulum VPI 0546 by agar dilution method in presence of 5% laked sheep blood; details: Lancefieldella parvula
[9] = Antimicrobial activity against Finegoldia magna ATCC 29328 by agar dilution method in presence of 5% laked sheep blood
Parvimonas micra = test: Antimicrobial activity against Parvimonas micra VPI 5464-1 by agar dilution method in presence of 5% laked sheep blood
Peptoniphilus indolicus = test: Antimicrobial activity against Peptoniphilus indolicus GAI 0915 by agar dilution method in presence of 5% laked sheep blood
[10] = tested on: Staphylococcus saccharolyticus; test: Antimicrobial activity against Staphylococcus saccharolyticus ATCC 14953 by agar dilution method in presence of 5% laked sheep blood
[11] = tested on: Streptococcus constellatus; test: Antimicrobial activity against Streptococcus constellatus ATCC 27923 by agar dilution method in presence of 5% laked sheep blood
Clostridioides difficile = test: Antimicrobial activity against Clostridium difficile GAI 10029 by agar dilution method in presence of 5% laked sheep blood
Clostridium septicum = test: Antimicrobial activity against Clostridium septicum ATCC 12464 by agar dilution method in presence of 5% laked sheep blood
[12] = tested on: Paeniclostridium sordellii; test: Antimicrobial activity against Clostridium sordellii ATCC 9714 by agar dilution method in presence of 5% laked sheep blood; details: Paraclostridium sordellii
[13] = Antimicrobial activity against Bifidobacterium adolescentis ATCC 15703 by agar dilution method in presence of 5% laked sheep blood
Bifidobacterium bifidum = test: Antimicrobial activity against Bifidobacterium bifidum JCM 1255 by agar dilution method in presence of 5% laked sheep blood
Bifidobacterium breve = test: Antimicrobial activity against Bifidobacterium breve ATCC 15700 by agar dilution method in presence of 5% laked sheep blood
[14] = Antimicrobial activity against Bifidobacterium longum subsp. longum ATCC 15707 by agar dilution method in presence of 5% laked sheep blood
[15] = tested on: Bifidobacterium pseudolongum; test: Antimicrobial activity against Bifidobacterium pseudolongum ATCC 25526 by agar dilution method in presence of 5% laked sheep blood
Eggerthella lenta = test: Antimicrobial activity against Eggerthella lenta ATCC 25559 by agar dilution method in presence of 5% laked sheep blood
Cutibacterium acnes = test: Antimicrobial activity against Propionibacterium acnes ATCC 11828 by agar dilution method in presence of 5% laked sheep blood
[16] = tested on: Propionibacterium granulosum; test: Antimicrobial activity against Propionibacterium granulosum ATCC 25564 by agar dilution method in presence of 5% laked sheep blood; details: Cutibacterium granulosum
Lacticaseibacillus casei = test: Antimicrobial activity against Lactobacillus casei subsp. casei JCM 1134 by agar dilution method in presence of 5% laked sheep blood
[17] = tested on: Limosilactobacillus fermentum; test: Antimicrobial activity against Lactobacillus fermentum JCM 1173 by agar dilution method in presence of 5% laked sheep blood
[18] = tested on: Limosilactobacillus reuteri; test: Antimicrobial activity against Lactobacillus reuteri JCM 1112 by agar dilution method in presence of 5% laked sheep blood
Lactobacillus salivarius = test: Antimicrobial activity against Lactobacillus salivarius subsp. salivarius JCM 1231 by agar dilution method in presence of 5% laked sheep blood; details: Ligilactobacillus salivarius
Bacteroides fragilis [19] = test: Antimicrobial activity against Bacteroides fragilis GAI 5562 by agar dilution method in presence of 5% laked sheep blood
Bacteroides fragilis [20] = test: Antimicrobial activity against Bacteroides fragilis NCTC 10581 by agar dilution method in presence of 5% laked sheep blood
Bacteroides fragilis [21] = test: Antimicrobial activity against Bacteroides fragilis GAI 0558 by agar dilution method in presence of 5% laked sheep blood
Bacteroides fragilis [22] = test: Antimicrobial activity against Bacteroides fragilis GAI 10150 by agar dilution method in presence of 5% laked sheep blood

Measured: MIC

C[C@@H](O)[C@H]1C(=O)N2C(C(=O)O)=C(S[C@@H]3CN[C@H](CNS(N)(=O)=O)C3)[C@H](C)[C@H]12 [DORIPENEM]
0.03 mg/L: [6]
0.125 mg/L: Campylobacter gracilis | Prevotella corporis | Prevotella oris | [8] | Capnocytophaga ochracea | Parvimonas micra | Bifidobacterium bifidum | [18]
4 mg/L: Clostridioides difficile
2 mg/L: Bacteroides fragilis [22]
1 mg/L: Atopobium parvulum | Bifidobacterium breve | [14] | Cutibacterium acnes | Lacticaseibacillus casei
0.06 mg/L: Prevotella intermedia | Prevotella denticola | Bilophila wadsworthia | Veillonella parvula | [10] | Clostridium septicum | [17]
> 128 mg/L: Bacteroides fragilis [1] | Bacteroides fragilis [2]
0.25 mg/L: Phocaeicola vulgatus | Bacteroides uniformis | [4] | [5] | Prevotella buccae | Anaerococcus prevotii | [9] | [13] | Eggerthella lenta
≤ 0.015 mg/L: [7] | Peptoniphilus indolicus | [12]
0.5 mg/L: all other assays above

C[C@@H](O)[C@H]1C(=O)N2C(C(=O)O)=C(S[C@@H]3CN[C@H](C(=O)N(C)C)C3)[C@H](C)[C@H]12 [MEROPENEM]
4 mg/L: Clostridioides difficile
0.5 mg/L: Atopobium parvulum | [14] | [18]
0.06 mg/L: Campylobacter gracilis | [5] | Prevotella intermedia | Prevotella denticola | Prevotella oris | Clostridium septicum | Bifidobacterium bifidum
2 mg/L: Cutibacterium acnes | Lacticaseibacillus casei | Bacteroides fragilis [22]
1 mg/L: Bifidobacterium breve | Eggerthella lenta | [16] | Lactobacillus salivarius
> 128 mg/L: Bacteroides fragilis [1] | Bacteroides fragilis [2]
≤ 0.015 mg/L: [6] | [7] | Peptoniphilus indolicus
0.25 mg/L: [3] | Prevotella bivia | Prevotella buccae | Anaerococcus prevotii | [15] | [17] | Bacteroides fragilis [20]
0.03 mg/L: Prevotella corporis | Bilophila wadsworthia | Capnocytophaga ochracea | Veillonella parvula | [12]
0.05 mg/L: [11] | Bacteroides fragilis [21]
0.125 mg/L: all other assays above

Cc1ncc([N+](=O)[O-])n1CCO [METRONIDAZOLE]
0.125 mg/L: Prevotella corporis | [7]
0.25 mg/L: Phocaeicola vulgatus | Prevotella denticola | Prevotella oris | [6]
2 mg/L: Prevotella bivia | Veillonella parvula | Anaerococcus prevotii
8 mg/L: [14]
0.06 mg/L: Bilophila wadsworthia | [8]
16 mg/L: Bifidobacterium breve
4 mg/L: Bifidobacterium bifidum
> 128 mg/L: [10] | [11] | [15] | Cutibacterium acnes | [16] | Lacticaseibacillus casei | [17] | [18] | Lactobacillus salivarius
0.5 mg/L: Bacteroides uniformis | [4] | Campylobacter gracilis | Prevotella buccae | Atopobium parvulum | Peptoniphilus indolicus | Clostridioides difficile | Eggerthella lenta | Bacteroides fragilis [21]
64 mg/L: [13]
1 mg/L: all other assays above
